Measurements as given in PubChem BioAssay AID1963866 (Molecular Pharmacology Branch, DTP, NCI, 2024).

System: PDC KRAS tumor spheroids with HUVEC/MSC, viability
Test: Anticancer human tumor 349418-098-R-PDC patient-derived lung adenocarcinoma cell line growth inhibition [KRAS2]
Settings: for IC50: curve of first compound; for viability, T/C: stronger effect = lower value
Method in brief: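 KRAS-mutant tumor cells were grown as spheroids with HUVEC endothelial cells and human MSCs as stroma. Targeted agents were tested alone and with KRAS pathway inhibitors. Doses started at or near clinical Cmax, or 10 microM, descending half-log.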

[1] = second compound 0.1 µM, first compound 0.0316 µM
[2] = second compound 0.1 µM, first compound 0.1 µM
[3] = second compound 0.1 µM, first compound 0.316 µM
[4] = second compound 0.1 µM, first compound 1 µM
[5] = second compound 0.1 µM, first compound 3.16 µM
[6] = second compound 0.1 µM, first compound 10 µM
[7] = second compound 0.316 µM, first compound 0.0316 µM
[8] = second compound 0.316 µM, first compound 0.1 µM
[9] = second compound 0.316 µM, first compound 0.316 µM
[10] = second compound 0.316 µM, first compound 1 µM
[11] = second compound 0.316 µM, first compound 3.16 µM
[12] = second compound 0.316 µM, first compound 10 µM
[13] = second compound 1 µM, first compound 0.0316 µM
[14] = second compound 1 µM, first compound 0.1 µM
[15] = second compound 1 µM, first compound 0.316 µM
[16] = second compound 1 µM, first compound 1 µM
[17] = second compound 1 µM, first compound 3.16 µM
[18] = second compound 1 µM, first compound 10 µM
[19] = second compound 3.16 µM, first compound 0.0316 µM
[20] = second compound 3.16 µM, first compound 0.1 µM
[21] = second compound 3.16 µM, first compound 0.316 µM
[22] = second compound 3.16 µM, first compound 1 µM
[23] = second compound 3.16 µM, first compound 3.16 µM
[24] = second compound 3.16 µM, first compound 10 µM
[25] = second compound 10 µM, first compound 0.0316 µM
[26] = second compound 10 µM, first compound 0.1 µM
[27] = second compound 10 µM, first compound 0.316 µM
[28] = second compound 10 µM, first compound 1 µM
[29] = second compound 10 µM, first compound 3.16 µM
[30] = second compound 10 µM, first compound 10 µM
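Further: spheroids exposed to compounds for seven days before readout.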

Row | Compound | IC50 (second compound 0.1 µM) [nM] | IC50 (second compound 0.316 µM) [nM] | IC50 (second compound 1 µM) [nM] | IC50 (second compound 3.16 µM) [nM] | IC50 (second compound 10 µM) [nM] | viability, T/C [1] [%] | viability, T/C [2] [%] | viability, T/C [3] [%] | viability, T/C [4] [%] | viability, T/C [5] [%] | viability, T/C [6] [%] | viability, T/C [7] [%] | viability, T/C [8] [%] | viability, T/C [9] [%] | viability, T/C [10] [%] | viability, T/C [11] [%] | viability, T/C [12] [%] | viability, T/C [13] [%] | viability, T/C [14] [%] | viability, T/C [15] [%] | further results
1 | COC(=O)c1ccc2c(C(=Nc3ccc(N(C)C(=O)CN4CCN(C)CC4)cc3)c3ccccc3)c(O)[nH]c2c1 + CNCc1ccccc1-c1csc(C(C)Nc2nc(C)nc3cc(OC)c(OC)cc23)c1 | 445 | 270 | 53.6 | < 31.6 | < 31.6 | 84.1 | 96.6 | 55.8 | 29.8 | 12.4 | 12.9 | 75.3 | 84.9 | 42.5 | 25.7 | 6.84 | 13 | 56.5 | 41.4 | 27.6 | viability, T/C [16]: 10.6%; viability, T/C [17]: 1.75%; viability, T/C [18]: 1.57%; viability, T/C [19]: 0.32%; viability, T/C [20]: 0.25%; viability, T/C [21]: 0.19%; viability, T/C [22]: 0.06%; viability, T/C [23]: 0.13%; viability, T/C [24]: 0.15%; viability, T/C [25]: 0.09%; viability, T/C [26]: 0.07%; viability, T/C [27]: 0.06%; viability, T/C [28]: 0.06%; viability, T/C [29]: 0.05%; viability, T/C [30]: 0.09%
2 | COc1cc(Nc2ncc3c(n2)-c2ccc(Cl)cc2C(c2c(F)cccc2OC)=NC3)ccc1C(=O)O + CNCc1ccccc1-c1csc(C(C)Nc2nc(C)nc3cc(OC)c(OC)cc23)c1 | < 31.6 | < 31.6 | < 31.6 | < 31.6 | < 31.6 | 51.9 | 26.1 | 38.8 | 36.7 | 32.7 | 24.8 | 51.1 | 26.1 | 35.7 | 32.2 | 32.8 | 28.8 | 40.2 | 23.6 | 32.4 | viability, T/C [16]: 26.8%; viability, T/C [17]: 25.9%; viability, T/C [18]: 26.7%; viability, T/C [19]: 0.15%; viability, T/C [20]: 0.11%; viability, T/C [21]: 0.14%; viability, T/C [22]: 0.14%; viability, T/C [23]: 0.08%; viability, T/C [24]: 0.29%; viability, T/C [25]: 0.08%; viability, T/C [26]: 0.07%; viability, T/C [27]: 0.08%; viability, T/C [28]: 0.08%; viability, T/C [29]: 0.08%; viability, T/C [30]: 0.13%
3 | O=C(c1cc(Cc2n[nH]c(=O)c3ccccc23)ccc1F)N1CCN(C(=O)C2CC2)CC1 + CNCc1ccccc1-c1csc(C(C)Nc2nc(C)nc3cc(OC)c(OC)cc23)c1 | 4090 | 2900 | 2530 | < 31.6 | < 31.6 | 101 | 99.5 | 83 | 71 | 58.1 | 31.4 | 107 | 101 | 78.5 | 69.7 | 48.4 | 29 | 99.5 | 77.8 | 75.3 | viability, T/C [16]: 69.6%; viability, T/C [17]: 45.3%; viability, T/C [18]: 27.8%; viability, T/C [19]: 0.19%; viability, T/C [20]: 0.21%; viability, T/C [21]: 0.12%; viability, T/C [22]: 0.11%; viability, T/C [23]: 0.1%; viability, T/C [24]: 0.11%; viability, T/C [25]: 0.08%; viability, T/C [26]: 0.08%; viability, T/C [27]: 0.08%; viability, T/C [28]: 0.07%; viability, T/C [29]: 0.07%; viability, T/C [30]: 0.17%
